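Dose response: 5 concentrations. Exposure: 48 h. Format: 96-well plates. Endpoint: linear interpolation; highest concentration if not reached. TGI: total growth inhibition.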 Some results are limits rather than exact numbers.

Test systems include MDA-MB-435; K-562 leukemia; PC-3 prostate; NCI-H23 lung; M14 melanoma; TK-10 renal; DU-145 prostate; MALME-3M melanoma; T-47D breast; A549 NSCLC.
Holding throughout (assay): NCI tumour cell line growth inhibition, 48 h

In the case of `CCCCCCCCCCCCCCCCCCNc1ccn(C2OC(COP(=O)(O)OCC3OC(n4cc(F)c(NCCCCCCCCCCCCCCCCCC)nc4=O)CC3O)C(O)C2O)c(=O)n1` (stereo not given), the TGI in the assay with MDA-MB-435, with K-562 leukemia, in the assay with PC-3 prostate, with NCI-H23 lung, in the assay on M14 melanoma and in the assay on TK-10 renal was more than 100 µM throughout. Moreover, the TGI with DU-145 prostate, in the assay with MALME-3M melanoma, with T-47D breast and in the assay with A549 NSCLC was more than 100 µM each time.

For `Oc1c([Si](c2ccccc2)(c2ccccc2)c2ccccc2)cc2ccccc2c1-c1c(O)c([Si](c2ccccc2)(c2ccccc2)c2ccccc2)cc2ccccc12`, the TGI with MDA-MB-435, in the assay on K-562 leukemia, in the assay on PC-3 prostate, in the assay with NCI-H23 lung, with M14 melanoma and in the assay with TK-10 renal was more than 100 µM each time. The TGI with DU-145 prostate, with MALME-3M melanoma, in the assay with T-47D breast and in the assay with A549 NSCLC was more than 100 µM throughout.

Regarding `CCOc1cc(C2CC(c3ccc(NS(=O)(=O)c4cc([N+](=O)[O-])ccc4C)cc3)=NN2c2ccc([N+](=O)[O-])cc2[N+](=O)[O-])ccc1O` (stereo not given), the TGI in the assay on MDA-MB-435 was more than 100 µM; with K-562 leukemia it was more than 100 µM; in the assay on PC-3 prostate, 64.7 µM; in the assay on NCI-H23 lung it was 42.9 µM; in the assay on M14 melanoma, 31.6 µM; with TK-10 renal it was 33.7 µM. In addition, the TGI in the assay on DU-145 prostate was found to be 45.1 µM; in the assay with MALME-3M melanoma, 23.2 µM; in the assay on T-47D breast, 60.2 µM; with A549 NSCLC, 28.1 µM.

Turning to `CC1(C)CC(C)(C)C1=NNC(N)=O`, the TGI with MDA-MB-435, in the assay with K-562 leukemia, in the assay on PC-3 prostate, in the assay with NCI-H23 lung, in the assay with M14 melanoma and with TK-10 renal was more than 100 µM in each case. Besides, the TGI in the assay on DU-145 prostate, with MALME-3M melanoma, with T-47D breast and in the assay on A549 NSCLC was more than 100 µM in each case.

For the molecule `COc1cc(/C=C2\Sc3scc(-c4cccc([N+](=O)[O-])c4)[n+]3C2=O)cc(OC)c1OC`, the TGI is 25.2 µM in the assay on MDA-MB-435; more than 100 µM with K-562 leukemia; 86.3 µM with PC-3 prostate; 33.2 µM in the assay on NCI-H23 lung; 23.9 µM in the assay on M14 melanoma; 22.6 µM in the assay with TK-10 renal. In addition, the TGI in the assay on DU-145 prostate amounted to 30.2 µM; in the assay with MALME-3M melanoma it was 28.4 µM; in the assay on T-47D breast, 25 µM; in the assay on A549 NSCLC, 54.3 µM.

As for `O=C1c2cc3c(cc2CC12Cc1ccc4c(c1C2=O)CCCC4)CCCC3` (stereo not given), the TGI in the assay with MDA-MB-435, in the assay on K-562 leukemia, with PC-3 prostate, in the assay with NCI-H23 lung, in the assay on M14 melanoma and in the assay on TK-10 renal was more than 100 µM each time. The TGI in the assay on DU-145 prostate, in the assay on MALME-3M melanoma, with T-47D breast and with A549 NSCLC was more than 100 µM in each case.

As for `N#Cc1ccccc1-c1nc2c3c(c(N)ccc3n1)C(=O)c1ccccc1-2`, the TGI in the assay on MDA-MB-435, in the assay with K-562 leukemia, in the assay on PC-3 prostate, with NCI-H23 lung, with M14 melanoma and with TK-10 renal was more than 100 µM in each case. Also, the TGI with DU-145 prostate, in the assay on MALME-3M melanoma, in the assay on T-47D breast and with A549 NSCLC was more than 100 µM throughout.

Take `CC(=O)Nc1ccc(OC2=CCN(C)CC2)cc1`: the TGI with MDA-MB-435, with K-562 leukemia, in the assay with PC-3 prostate, in the assay with NCI-H23 lung, in the assay with M14 melanoma and in the assay with TK-10 renal was more than 100 µM in each case. In addition, the TGI in the assay with DU-145 prostate, with MALME-3M melanoma, in the assay on T-47D breast and in the assay on A549 NSCLC was more than 100 µM in each case.

As to `COC(=O)c1c(O)ccc2c1c1c(n2Cc2cccc(C)c2)C(=O)c2ccccc2C1=O`, the TGI with MDA-MB-435 was 23.3 µM; with K-562 leukemia, 35 µM; in the assay with PC-3 prostate it was 23.5 µM; with NCI-H23 lung, 26 µM; with M14 melanoma it was 32.3 µM; with TK-10 renal, 25.2 µM. For the same molecule, the TGI with DU-145 prostate came out at 32.6 µM; in the assay on MALME-3M melanoma, 34.1 µM; in the assay with T-47D breast, 12.4 µM; with A549 NSCLC, 20.3 µM.

`CSC1=N/C(=C\c2ccco2)C(=O)N1CN1CCOCC1`: the TGI with MDA-MB-435, in the assay with K-562 leukemia, in the assay on PC-3 prostate, with NCI-H23 lung, with M14 melanoma and in the assay on TK-10 renal was more than 100 µM each time. Besides, the TGI was more than 100 µM in the assay with DU-145 prostate, more than 80.7 µM in the assay with MALME-3M melanoma, more than 100 µM in the assay with T-47D breast and more than 100 µM in the assay on A549 NSCLC.

As for `COC(=O)C(Cc1ccccc1)NP(=O)(O)OCC1OC(n2cc(F)c(=O)[nH]c2=O)CC1O` (stereo not given), the TGI in the assay with MDA-MB-435, in the assay with K-562 leukemia, with PC-3 prostate, in the assay on NCI-H23 lung, with M14 melanoma and in the assay with TK-10 renal was more than 100 µM in each case. Moreover, the TGI with DU-145 prostate, in the assay on MALME-3M melanoma, in the assay with T-47D breast and in the assay on A549 NSCLC was more than 100 µM each time.

On to `Nc1ncnc2c1nnn2C1CCC(CP(=O)(O)O)C1` (stereo not given), for which the TGI with MDA-MB-435, in the assay with K-562 leukemia, in the assay with PC-3 prostate, with NCI-H23 lung, in the assay with M14 melanoma and in the assay on TK-10 renal was more than 100 µM in each case. In addition, the TGI with DU-145 prostate, in the assay with MALME-3M melanoma, with T-47D breast and in the assay with A549 NSCLC was more than 100 µM in each case.

With `COc1ccccc1NC(=O)CC(=O)N1N=C(C)C(N=Nc2ccc(C(=O)O)cc2)C1=O` (stereo not given), the TGI with MDA-MB-435, with K-562 leukemia, with PC-3 prostate, in the assay on NCI-H23 lung, in the assay on M14 melanoma and in the assay on TK-10 renal was more than 100 µM in each case. Besides, the TGI with DU-145 prostate, with MALME-3M melanoma, in the assay on T-47D breast and in the assay on A549 NSCLC was more than 100 µM each time.

The values above are taken from PubChem BioAssay (NCI).
